This is an account of results in publication PMC6158327, “Negative Allosteric Modulators of mGlu7 Receptor as Putative Antipsychotic Drugs” (Frontiers in Molecular Neuroscience, 2018).

pIC50: −log10 of the molar value.

Test [1] has as its system amphetamine-induced hyperactivity. Details: method as in Kalinichev et al., 2013. As to conditions: 100 and 150 mg/kg, subcutaneous; ref Kalinichev et al., 2013; cited from earlier work.
The test system of test [2] is MK-801-induced deficits in the NOR test. Kind of test: Novel object recognition test (MK-801-induced deficits). In kind it is in vivo, Albino Swiss mice. As to conditions: 30 min before MK-801 (0.3 mg/kg), mice. How it is done:
The experiment was performed according to [Nilsson et al., 2007] with minor modifications ([Woźniak et al., 2016b]). Following a 2-day habituation period (10 min/day), a training trial was performed, where mice were allowed to explore two identical objects for 5 min. About 1 h later, a test trial was conducted, where one of the familiar object was replaced by a novel object. The animals were then allowed to explore the objects for 5 min. […] Time spend exploring (i.e., sniffing or touching) the familiar (Tfamiliar) or novel object (Tnovel) was measured by a trained observer and then the recognition index was calculated for each mouse [(Tnovel - Tfamiliar)/(Tfamiliar + Tnovel)] × 100.

The next test concerns the target Cytochrome P450 3A4 (Homo sapiens, UniProt P08684). Nature of the test: Cytochrome P450 inhibition, 3A4. The class given is in vitro ADME.
The test system of test [3] is prepulse-induced inhibition of the acoustic startle response. Nature of the test: Prepulse inhibition of the acoustic startle response. In kind it is in vivo, Wistar rats. Particulars: rats; for Effect on MK-801-induced disruption of prepulse inhibition: 30 min prior to MK-801 (0.3 mg/kg). How it is done:
The procedure was performed according to [Czyrak et al., 2003]. On the day before the experiment, the animals were subjected to a single startle session consisting of two trials, each presented 20 times during the session. During the first trial, a 120 dB, 40 ms pulse was presented, and on the second trial this pulse was preceded by a 75 dB, 20 ms prepulse. On the day of the experiment, the animals were habituated to the background white noise (65 dB) for 5 min (which continued throughout the test), after that the startle session was carried out as described above. Startle response amplitude was defined as the difference between the maximum force detected during a recording window and the force measured immediately before the stimulus onset (the threshold was set at 10 g). For each animal, the amplitudes were averaged separately for each type of trial. The PPI was calculated as the difference between the amplitudes of the pulse (P) and the prepulse + pulse (PP+P), divided by the amplitude of the pulse alone [([P - (PP + P)]/P)×100].

The test system of test [4] is MK-801-induced increase in immobility time. Kind of test: Modified forced swim test after chronic MK-801. The class given is in vivo, Albino Swiss mice. As to conditions: chronic (13 days) MK-801 0.4 mg/kg, mice. How it is done:
The modified forced swim test was performed according to the method introduced by Noda ([Noda et al., 1995], [1997]; [Wierońska et al., 2015a]; [Woźniak et al., 2016a]). The swim tests were performed in a glass cylinder (height, 20 cm; internal diameter, 15 cm) containing 11 cm of water maintained at 23–24°C. After the acclimation period, the animals underwent the first swim test, where the immobility time was measured during a 3 min period (T1). On the next day, chronic (13 days) MK-801 administration (0.4 mg/kg, i.p.) was started. After a 1-day break, on the 15th day of experiment, the second swim session was performed and the immobility time during 3-min test was measured again (T2). The T2 - T1 difference was reported as the result of the experiment.

Test [5] has as its system MK-801-induced disruption in spatial delayed alternation. Kind of test: Spatial delayed alternation test (T-maze). The class given is in vivo, Wistar rats. As to conditions: 10 mg/kg, 30 min prior to MK-801 (0.1 mg/kg), rats. How it is done: The spatial delayed alternation test was performed using a wooden T-maze, according to [Sławińska et al., 2013] and [Wierońska et al., 2015b].
During the adaptation phase, lasting 3 days, the animals were allowed to freely explore the maze for 10 min. For the next 2 days, rats were confined to either of the two end-arms and allowed to drink a 10 % sucrose solution there for 10 min twice daily. On the following day, a 2-week training phase was started. The animals performed one training session per day, which consisted of one forced trial (i.e., one of the end-arms was closed) followed by ten free choice trials. During the free choice trial the animal was placed in the starting arm and after the guillotine door was raised, it was allowed to choose to enter one of the end-arms. After the response, the rat was placed back to the starting arm, where it stayed for 10 s. If the chosen end-arm was the opposite to the previously visited one, a correct response was scored, and the animal was closed in the compartment where it was allowed to drink the sucrose solution for 5 s. After an incorrect response, the animal was gently returned to the starting arm. The training phase was carried out until the animals scored 7 correct responses in a training session in 2 consecutive days.
The test was started 30 min after the MK-801 injection.

Sequence of Cytochrome P450 3A4 (P08684 whole entry): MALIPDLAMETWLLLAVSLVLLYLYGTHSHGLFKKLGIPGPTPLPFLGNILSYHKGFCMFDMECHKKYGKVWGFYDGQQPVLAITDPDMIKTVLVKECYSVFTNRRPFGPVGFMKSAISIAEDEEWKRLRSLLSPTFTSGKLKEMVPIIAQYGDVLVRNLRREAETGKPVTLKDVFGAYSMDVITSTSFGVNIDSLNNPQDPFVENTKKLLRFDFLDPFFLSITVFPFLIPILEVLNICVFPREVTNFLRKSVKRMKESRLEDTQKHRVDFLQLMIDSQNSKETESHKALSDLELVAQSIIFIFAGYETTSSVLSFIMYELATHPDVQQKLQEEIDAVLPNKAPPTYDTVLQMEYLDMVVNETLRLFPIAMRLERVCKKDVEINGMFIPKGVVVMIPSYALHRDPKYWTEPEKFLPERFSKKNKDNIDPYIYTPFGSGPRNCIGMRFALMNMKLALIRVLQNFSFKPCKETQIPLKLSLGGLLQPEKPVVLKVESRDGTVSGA

Take `CCc1nc2c(o1)CC(c1ccc(C)cc1C)CC2=O` (centres unmarked) [ADX71743, 6-(2,4-Dimethylphenyl)-2-ethyl-6,7-dihydro-4(5H)-benzoxazolone]: the “Activity in amphetamine-induced hyperactivity” value in test [1] was “active”. Moreover, the “Effect on MK-801-induced reduction of recognition index (NOR)” value in test [2] (1 mg/kg i.p.), in test [2] (5 mg/kg i.p.) and in test [2] (15 mg/kg i.p.) was “significant reversal of MK-801-induced effect” throughout. Further, the pIC50 against Cytochrome P450 3A4 is < 5.00. Further, the “Effect on MK-801-induced disruption of prepulse inhibition” value in test [3] (2.5 mg/kg) was “inhibited MK-801-induced disruption in PPI”.

For `COc1ccc(-c2cc3onc(-c4ccncc4)c3c(=O)n2C)cc1` [MMPIP, 6-(4-Methoxyphenyl)-5-methyl-3-(4-pyridinyl)-isoxazolo(4,5-c)pyridin-4(5H)-one], the “Effect on MK-801-induced increase in immobility time (modified forced swim test)” value in test [4] (1 mg/kg i.p. acutely 30 min before T2) and in test [4] (15 mg/kg i.p. acutely 30 min before T2) was “significant reversal of MK-801-induced effect” each time. Moreover, in test [3] (10 mg/kg given alone, effect not statistically significant), the “Prepulse-induced inhibition of the acoustic startle response, drug given alone” value is 137 % of control. In addition, in test [3] (all doses (5, 10, and 15 mg/kg)), the “Effect on MK-801-induced disruption of prepulse inhibition” value is “not antagonized”. The “Effect on MK-801-induced reduction of choice accuracy (spatial delayed alternation)” value in test [5] is on record as “rescued the MK-801–induced cognitive impairments”.
